Source: patent US9409876B2, “Bradykinin receptor antagonists and pharmaceutical compositions containing them” (DOMPE' FARMACEUTICI S.P.A., priority 2013, dated 2016)

Assays:
[1] = tested on: CCI-induced mechanical allodynia; assay: Chronic constriction model of pain, mechanical allodynia; type: in vivo, rat
Description: An evaluation of the in vivo activity of compound 8 (R,R) was performed by testing the inhibition potential in mechanical allodynia using the chronic constriction model of pain.
Male Sprague-Dawley (SD) derived rats weighing 180±20 g (at arrival) were provided by BioLasco Taiwan (under Charles River Laboratories Technology Licensee). Space allocation for 5 animals per cage was 45×23×21 cm and maintained in a controlled temperature (20-24° C.) and humidity (50%-80%) environment with 12 hours light/dark cycles for at least three days in Ricerca Biosciences, LLC (Taipei, Taiwan) Laboratory prior to use. Free access to standard lab chow for rats [MF-18 (Oriental Yeast Co., Ltd., Japan)] and tap water was granted. All aspects of this work including housing, experimentation and disposal of animals were performed in general accordance with the Guide for the Care and Use of Laboratory Animals (National Academy Press, Washington, D. C., 2010).
Neuropathic pain behavior was induced by ligation of the sciatic nerve according to the method described by Bennett and Xie [Bennett G. J. and Xie Y. K. A peripheral mononeuropathy in rat that produces disorders of pain sensation like those seen in man, Pain, (1988) 33:87-107]. Briefly, rats were anaesthetized under pentobarbital (50 mg/kg, 5 mL/kg, IP) anesthesia and the sciatic nerve was exposed at mid-thigh level. […]
The rats had access to food and water up to the time of the experiment, and then were placed under inverted Plexiglas cages on a wire mesh rack and allowed to acclimate for 20 to 30 minutes. Allodynia was evaluated using the Chaplin “up/down” method using von Frey hairs [Chaplan, S. R, Bach, F. W., Pogrel, J. W., Chung, J. M. and Yaksh, T. L. Quantitative assessment of tactile allodynia in the rat paw. […]
The threshold of response of the treated rats was compared to respective vehicle treated rats; two-way ANOVA followed by Bonferroni's test was used for comparison between vehicle and treated groups. […] The delta change value at each time point was also calculated. […]

BKB1 receptors = target: T1, BKB1 receptors (Homo sapiens, UniProt P46663); assay: Calcium Mobilization Assay (FLIPR), IMR-90 cells, BKB1; type: cell-based; details: IL-1 induced IMR-90 cells, agonist desArg10-kallidin (DAKD)
T1 construct: Human (IMR-90) lung fibroblast cells expressing native BKB1 receptors; endogenous in cells; host or cells: IMR-90 human lung fibroblasts, treated with human IL-1 to up-regulate BKB1
T1 sequence (P46663 1-353): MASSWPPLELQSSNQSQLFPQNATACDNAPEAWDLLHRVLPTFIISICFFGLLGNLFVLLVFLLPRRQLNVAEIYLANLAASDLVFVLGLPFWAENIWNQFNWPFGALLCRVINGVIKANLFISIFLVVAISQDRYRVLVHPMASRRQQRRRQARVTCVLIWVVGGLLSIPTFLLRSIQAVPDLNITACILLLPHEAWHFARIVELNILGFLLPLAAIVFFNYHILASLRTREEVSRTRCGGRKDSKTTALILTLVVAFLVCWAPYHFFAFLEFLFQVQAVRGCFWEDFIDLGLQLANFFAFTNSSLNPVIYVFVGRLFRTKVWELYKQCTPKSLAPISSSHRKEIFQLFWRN
Description: Calcium Mobilization Assay (FLIPR)—Human (IMR-90) lung fibroblast cells expressing native BKB1 receptors were harvested by trypsinization and seeded into black wall/clear bottom 96-well plates (Costar 3904; Corning Life Sciences, Acton, Mass.) at approximately 13,000 cells/well. After 1 day incubation, cells were treated with human IL-1 (0.35 ng/ml) in 10% FBS/MEM for 2 h to up-regulate BKB1 receptors. Induced cells were loaded with fluorescent calcium indicator by incubation with 2.3 µM Fluo-4/acetoxymethyl ester (Invitrogen) at 37° C. for 1.5 h in the presence of an anion transport inhibitor (2.5 mM probenecid in 1% FBS/MEM). Extracellular dye was removed by washing with assay buffer (2.5 mM probenecid, 0.1% BSA in 20 mM HEPES/HBSS without bicarbonate or phenol red, pH 7.5) and cell plates were kept in the dark until used. Test compounds were assayed at eight concentrations in triplicate.

[2] = Metabolic stability in liver microsomes with NADPH; type: in vitro ADME; details: Wistar, rat, microsomes 0.5 mg/ml, pH 7.4, with NADPH, read-out: intrinsic clearance (CLint)
Description: Metabolic stability of compound 8 (R,R) was also determined in rat wistar liver microsomes in the in the presence of NADPH.
The concentration of the compound 8 (R,R) was 1 μM and microsomes 0.5 mg/ml in phosphate buffer 0.1M pH 7.4 with NADPH.
The degradation of the substrates was measured in duplicate by LC/MS/MS during six time points of incubation.

Compound: COc1ccccc1CN(C(=O)CC(C)C)[C@@H](C(=O)NC[C@H]1CCCO1)c1ccc(C)cc1 [Compound 8 (R,R), 3-methyl-N-(2-methoxybenzyl)-N-{[(1R)-1-(4-methylphenyl)]-2-oxo-2-[(2R)-(tetrahydrofuran-2-ylmethyl)amino]ethyl}butanamide]
- significant reversal of CCI-induced mechanical allodynia ([1]; 30 mg/kg IV, 2 and 3 hours post-dose): not at 2 and 3 hours post-dose
- inhibition of CCI-induced mechanical allodynia ([1]; 30 mg/kg IV, 1 hour post-dose): 37%
- inhibitory activity on allodynia ([1]; chronic constriction model of pain): strong inhibitory activity on allodynia
- IC50 (BKB1 receptors): 134 nM
- microsomal CLint at 1 μM [2]: 851 µL/min/mg
